According to publication PMC10893492, “Anticancer Evaluation of Novel Benzofuran–Indole Hybrids as Epidermal Growth Factor Receptor Inhibitors against Non-Small-Cell Lung Cancer Cells” (Pharmaceuticals, 2024):

Molecular target: epidermal growth factor receptor (EGFR) (Homo sapiens, UniProt P00533)
Experiment: EGFR kinase assay kit (BPS Bioscience) with Kinase-Glo Max luminescence
Type: biochemical

Chain of epidermal growth factor receptor (EGFR) (P00533 25-1210): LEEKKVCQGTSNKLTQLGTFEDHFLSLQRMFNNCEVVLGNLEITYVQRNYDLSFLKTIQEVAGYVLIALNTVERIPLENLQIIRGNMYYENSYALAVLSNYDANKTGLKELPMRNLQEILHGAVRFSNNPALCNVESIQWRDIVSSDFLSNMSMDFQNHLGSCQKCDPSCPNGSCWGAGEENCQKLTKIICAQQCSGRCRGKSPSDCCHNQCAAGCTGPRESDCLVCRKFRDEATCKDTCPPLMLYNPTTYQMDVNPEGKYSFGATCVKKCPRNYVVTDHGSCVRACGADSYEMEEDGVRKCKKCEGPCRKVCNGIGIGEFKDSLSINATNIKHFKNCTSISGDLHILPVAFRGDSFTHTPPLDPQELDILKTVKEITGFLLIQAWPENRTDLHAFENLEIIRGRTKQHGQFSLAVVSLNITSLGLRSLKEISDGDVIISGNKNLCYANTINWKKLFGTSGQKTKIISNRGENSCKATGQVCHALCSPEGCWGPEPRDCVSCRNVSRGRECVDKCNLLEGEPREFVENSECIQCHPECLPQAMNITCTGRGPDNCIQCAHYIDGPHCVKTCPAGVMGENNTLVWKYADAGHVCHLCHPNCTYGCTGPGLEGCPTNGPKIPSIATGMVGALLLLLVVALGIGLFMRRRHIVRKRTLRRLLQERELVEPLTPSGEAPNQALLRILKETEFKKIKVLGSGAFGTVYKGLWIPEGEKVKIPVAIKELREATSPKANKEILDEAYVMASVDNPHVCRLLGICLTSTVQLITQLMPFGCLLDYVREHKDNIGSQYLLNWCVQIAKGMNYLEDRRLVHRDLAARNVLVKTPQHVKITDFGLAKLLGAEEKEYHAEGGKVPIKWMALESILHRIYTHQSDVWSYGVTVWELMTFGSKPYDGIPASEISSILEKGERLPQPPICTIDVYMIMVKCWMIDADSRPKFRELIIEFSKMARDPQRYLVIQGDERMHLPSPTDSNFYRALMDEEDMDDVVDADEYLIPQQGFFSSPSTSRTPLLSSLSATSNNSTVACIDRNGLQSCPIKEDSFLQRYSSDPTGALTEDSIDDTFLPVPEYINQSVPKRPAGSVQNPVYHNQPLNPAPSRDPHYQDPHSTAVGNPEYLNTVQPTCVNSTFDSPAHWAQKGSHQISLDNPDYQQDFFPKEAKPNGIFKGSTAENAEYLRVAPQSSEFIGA

SMILES: COc1cc2oc(-c3ccccc3)c(-c3c[nH]c4ccc(Br)cc34)c2cc1OC [8aa, 5-Bromo-3-(5,6-dimethoxy-2-phenylbenzofuran-3-yl)-1H-indole]
- IC50: 440 ± 20 nM
